The series can be described thus: gradient 5% acetonitrile 3 min, to 50% in 2 min, to 85% in 15 min, held 3 min, 100 µL/min. As to conditions: column: Zorbax Extend-C18 2.1 x 50 mm; eluents: water / acetonitrile, 0.1% formic acid. In outline:
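The system's dead and dwell volumes were 40 μL and 900 μL, with a Zorbax Extend-C18 column (2.1 × 50 mm, 1.8 μm) run at 100 μL/min in water and acetonitrile containing 0.1% formic acid each. Pure standards were analyzed in mixtures of ~100 molecules by HPLC–quadrupole time-of-flight mass spectrometry in positive and negative ionization mode. Retention time was assigned from computationally picked, manually inspected adduct peaks.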
`Cc1ccc(OCC(=O)Nc2ccc3c(c2)Sc2ncccc2C(=O)N3C)cc1` registered an RP-LC retention time of 866 s.

`CCCn1nc(CNC(=O)c2cccc3[nH]ccc23)c2ccccc21` registered an RP-LC retention time of 813 s.

As to `CC(C)CCNC(=O)c1csc(-c2ccc(N3CCCC3)nc2)n1`, the RP-LC retention time is 714 s.

As for `CCOC(=O)Cn1c(=N)n(CCN2CCOCC2)c2ccccc21`, the RP-LC retention time is 548 s.

Compound `Cc1ccn2c(Nc3ccccc3C)c(-c3ccccc3)nc2c1` registered an RP-LC retention time of 745 s.

Consider `O=C(CCS(=O)(=O)c1ccc(Cl)cc1)Nc1nccs1`, for which the RP-LC retention time was found to be 679 s.

On to `COc1ccc(OC)c(NC(=O)N2CCCC(C)(C(=O)NCc3ccccc3C)C2)c1` (stereo unspecified), for which the RP-LC retention time came to 912 s.

On to `C/C=C/C(=O)N1C(=O)OC[C@@H]1Cc1ccccc1`, for which the RP-LC retention time worked out at 891 s.

Regarding `COc1cccc(NC(=O)Cn2c(=O)c3cc(-c4ccco4)nn3c3ncccc32)c1`, the RP-LC retention time turned out to be 807 s.

In turn, `Cc1cc(-c2cc(S(=O)(=O)NCCCOC(C)C)c(C)s2)n[nH]1` returned an RP-LC retention time of 770 s.

The compound `O=S(=O)(Nc1ccc(Cn2cncn2)cc1)c1ccc(F)cc1` yielded an RP-LC retention time of 701 s.

Turning to `COCCCNC(=O)N1CCN(Cc2nc3cccnc3n2-c2cc(C)cc(C)c2)CC1`, the RP-LC retention time stood at 650 s.

The compound `Cc1cccc(NC(=O)Cn2c(C(C)C)nc3c(c2=O)CCN(Cc2ccccc2)C3)c1` registered an RP-LC retention time of 728 s.

For `CSc1ccc(CNC(=O)c2[nH]c3cc(C)sc3c2CN(C)C)cc1`, the RP-LC retention time is 689 s.

`CS(=O)(=O)N1CCC(C(=O)Nc2ccccc2Cl)Oc2ccccc21` (stereo unspecified): the RP-LC retention time is 935 s.

`O=C(Cn1c(=O)n(Cc2cccnc2)c(=O)c2ncccc21)c1ccc2c(c1)CCCC2` gave an RP-LC retention time of 630 s.

`Cc1cccc(Cl)c1NC(=O)Cn1ncc2c(N3CCN(c4ccccn4)CC3)ncnc21` showed an RP-LC retention time of 593 s.

`C=CCn1c(NCc2ccccc2Cl)nc2ccccc21` displayed an RP-LC retention time of 699 s.

`COc1cc(NC(=O)NCCc2nc3cccnc3n2C2CCCCC2)cc(OC)c1OC` had an RP-LC retention time of 693 s.

For `Cc1ccccc1CNC(=O)c1c(C)sc2ccn(CC(C)C)c(=O)c12`, the RP-LC retention time was found to be 1010 s.

The compound `COc1ccc(-c2csc3c(=O)n(CC(C)C)cnc23)cc1` yielded an RP-LC retention time of 1020 s.

On to `COc1ccc(OC)c(CN2CCCC(OCc3noc(-c4ccoc4)n3)C2)c1` (stereo unspecified), for which the RP-LC retention time was 702 s.

Consider `CCOC(=O)c1c(S(=O)(=O)N2CCC(C(=O)NCc3ccco3)CC2)c(C)n(C)c1C`, for which the RP-LC retention time is 740 s.

Compound `O=C(CCn1c(N2CCCC2)nc2ccsc2c1=O)NCc1ccc(F)cc1` gave an RP-LC retention time of 755 s.

Turning to `O=C1NC2CCCCC2=C1CC(=O)N1CCCCC1` (stereo unspecified), the RP-LC retention time stood at 633 s.

The compound `CN(Cc1cccn1C)C(=O)NC1CCCC1` displayed an RP-LC retention time of 775 s.

`Cc1cc(C)n(Cc2nc(-c3ccc(NC(=O)c4ccco4)cc3)oc2C)n1`: the RP-LC retention time came out at 818 s.

`COc1ccc(CNC(=O)N2CCC(OC3CCN(S(C)(=O)=O)CC3)CC2)cc1`: the RP-LC retention time came out at 699 s.

For the compound `CCN1CCN(c2nc(F)c(F)c(S(=O)(=O)CCNc3ccccc3)c2F)CC1`, the RP-LC retention time worked out at 689 s.

Take `CCCNc1cc(N2CCC(CCC(=O)NCCc3cccnc3)CC2)ncn1`: the RP-LC retention time is 542 s.

In turn, `COc1ccc(NC(=O)c2nc(N3CCCC3)c3c(C)cc(C)nc3n2)c(C)c1` came in with an RP-LC retention time of 666 s.

`Cn1cccc1Cc1nnc(SCC(=O)NCc2ccco2)n1Cc1ccccc1` registered an RP-LC retention time of 708 s.

In turn, `Cn1cc(C(F)(F)F)nc1-c1ccc(OCC(O)CNCCOc2ccc(O)c(C(N)=O)c2)cc1` (stereo unspecified) registered an RP-LC retention time of 710 s.

The compound `O=C(Cn1nc(C(=O)N2CCCC2)c2ccccc21)NCc1ccccc1Cl` registered an RP-LC retention time of 824 s.

For the compound `COc1ccc(CC(=O)N2CCn3c(C)nnc3C2)cc1OC`, the RP-LC retention time worked out at 579 s.

The compound `Cc1nc2ccn(Cc3cccnc3)c(=O)c2cc1C(=O)NCCC(C)C` displayed an RP-LC retention time of 605 s.

`CCN1CCN(CCCNC(=O)C2CCCN(c3nnc(-n4c(C)ccc4C)s3)C2)CC1` (stereo unspecified) had an RP-LC retention time of 592 s.

In turn, `COc1ccc(CCN)cc1` came in with an RP-LC retention time of 574 s.

The compound `CC(=O)c1cccc(NC(=O)c2cc(-c3cccnc3)nc3ccccc23)c1` registered an RP-LC retention time of 739 s.

Compound `CCOC(=O)c1[nH]c(C)c(C(=O)N2CCC(CC(=O)NC(C)C)CC2)c1C` showed an RP-LC retention time of 643 s.

Compound `CCN1C(=O)c2c(C(=O)NCCc3ccccc3)ncn2CC1(C)C(=O)NC1CCCC1` (stereo unspecified) showed an RP-LC retention time of 756 s.

In turn, `Cc1noc(-c2ccc(SCC(=O)Nc3ccc(S(N)(=O)=O)cc3)nc2)n1` returned an RP-LC retention time of 705 s.

In turn, `Cn1c(=O)c(=O)n(C)c2cc(N3CCCC3)c(NC(=O)C3CC3)cc21` came in with an RP-LC retention time of 614 s.

Turning to `O=C(CN1C(=O)CCCc2cc(S(=O)(=O)N3CCCCC3)ccc21)Nc1ccc(F)c(Cl)c1`, the RP-LC retention time was 1000 s.

Regarding `CCCCN(CCCC)CCCOC(=O)c1ccc(N)cc1`, the RP-LC retention time was 738 s.

As to `O=C(NCCCN1CCCC1)c1nnc(-c2ccc(S(=O)(=O)N3CCCC3)cc2)o1`, the RP-LC retention time stood at 603 s.

`CCNc1nc(NCC)n2c(SCC(=O)Nc3ccccc3[N+](=O)[O-])nnc2n1` yielded an RP-LC retention time of 623 s.

`CCn1cc(-c2nc(CC(=O)Nc3ccc(OC)cc3)cs2)c2cccnc21` came in with an RP-LC retention time of 858 s.

As to `COc1ccc(-c2ccc(N3CCN(C(=O)Cc4cn(C)c5ccccc45)CC3)nn2)cc1`, the RP-LC retention time came to 656 s.

On to `O=C1CCCCC(Cc2ccccc2)(C(=O)Nc2cccnc2)N1` (stereo unspecified), for which the RP-LC retention time was found to be 623 s.

Regarding `CN(CCCNC(=O)C1CCN(c2nnc3ccc(Cl)cn23)CC1)c1ccccc1`, the RP-LC retention time was 606 s.

Turning to `COc1ccc(N2CCn3c(SCC(=O)Nc4ccccc4C(F)(F)F)nnc32)cc1`, the RP-LC retention time is 726 s.

As to `O=C(Cc1cccs1)NCCS(=O)(=O)N1CCN(c2ncccn2)CC1`, the RP-LC retention time was 653 s.

Compound `CCn1cc(CCNC(=O)CC2CCCC2)c2cccnc21` gave an RP-LC retention time of 701 s.

In turn, `CCCC(=O)Nc1cc2c(cc1S(=O)(=O)c1ccccc1)n(CC)c(=O)n2CC` gave an RP-LC retention time of 883 s.

Take `CCNC(=O)C1CCN(S(=O)(=O)c2cc(Cl)ccc2OC)CC1`: the RP-LC retention time came to 726 s.

Take `O=C(Nc1ccc2c(c1)OCCO2)C1CN(S(=O)(=O)C2CC2)CC12CCCCC2` (stereo unspecified): the RP-LC retention time came to 881 s.

Regarding `CCOC(=O)C1CCc2sc(NC(=O)Cc3noc4ccccc34)nc21` (stereo unspecified), the RP-LC retention time turned out to be 818 s.

`Fc1ccccc1N1CCN(Cc2nc(-c3ccc(N4CCCC4)nc3)no2)CC1`: the RP-LC retention time worked out at 698 s.

In turn, `CCn1cc(CCNC(=O)Nc2ccccc2)c2cccnc21` came in with an RP-LC retention time of 693 s.

`Cn1cc(-c2ccc3c(c2)CCN3C(=O)Cc2cccc(C(F)(F)F)c2)c2c(N)ncnc21` returned an RP-LC retention time of 867 s.

In turn, `Cc1ccccc1-c1nc(C2CCN(S(=O)(=O)c3ccc(C(C)C)cc3)CC2)no1` returned an RP-LC retention time of 1340 s.

As to `O=C(Cc1c(F)cccc1Cl)NC1CCN(c2cc(-c3ccccc3)[nH]n2)C1` (stereo unspecified), the RP-LC retention time worked out at 638 s.

`O=C(Nc1nnc(C2CC(=O)N(c3ccc(Cl)cc3)C2)o1)c1cccc(F)c1` (stereo unspecified) displayed an RP-LC retention time of 786 s.

With `CCOc1cc(CNC(=O)c2nc(N3CCOCC3)c3ccccc3n2)ccc1OC`, the RP-LC retention time was determined as 660 s.

Regarding `CCOc1ccc(S(=O)(=O)N2CCCC(C(=O)NCCO)C2)cc1C` (stereo unspecified), the RP-LC retention time amounted to 714 s.

In turn, `CC(C(=O)N1CCCc2ccccc21)n1cnc2nc3c(cc2c1=O)CCCC3` (stereo unspecified) yielded an RP-LC retention time of 818 s.

`COCCNC(=O)C1CCCN1S(=O)(=O)c1cc2c(cc1Cl)NC(=O)CO2` (stereo unspecified) showed an RP-LC retention time of 627 s.

In turn, `CN(CCc1noc(COc2ccccc2)n1)C(=O)Nc1ccccc1C(F)(F)F` had an RP-LC retention time of 953 s.

The compound `CCOc1nc2ccccc2nc1N1CCCC(C(=O)Nc2cccc(F)c2)C1` (stereo unspecified) showed an RP-LC retention time of 1200 s.

As to `O=C(Cc1nc(-c2ccccn2)n[nH]1)Nc1cccc(F)c1`, the RP-LC retention time came to 635 s.

`CN(C)c1cccc(C(=O)N2CCN(C(=O)c3nnn4c3COC(c3ccccc3)C4)CC2)c1` (stereo unspecified): the RP-LC retention time amounted to 799 s.

As for `CN(C)C(=O)c1cn(C2CN(C(=O)Nc3ccccc3F)C2)nn1`, the RP-LC retention time was 629 s.

In turn, `O=S(=O)(c1ccc(-c2noc(-c3ccc(Cl)cc3)n2)cc1)N1CCCC1` returned an RP-LC retention time of 1260 s.

On to `Cc1ccnc(N2CCC(C(=O)NC3CCCCC3)CC2)n1`, for which the RP-LC retention time came out at 669 s.

Compound `COc1ccc(CN2C[C@@H]3C(=O)N(CCc4ccccc4)C(=O)[C@@H]3C2)c(OC)c1` registered an RP-LC retention time of 728 s.

`CCc1ccc(NC(=O)C(C)Oc2cc(C(F)(F)F)c3c(C)nn(C)c3n2)cc1` (stereo unspecified) displayed an RP-LC retention time of 1030 s.

Turning to `O=C(Nc1ccnc2ccc(Cl)cc12)c1ccc(S(=O)(=O)NC2CC2)cc1`, the RP-LC retention time is 656 s.

The compound `CCOC(=O)c1noc2ncnc(Nc3ccccc3C)c12` registered an RP-LC retention time of 1010 s.

Compound `C=CCn1c(=O)c2ccccc2n(Cc2nc(-c3ccccc3)no2)c1=O` registered an RP-LC retention time of 1000 s.

The compound `CC(C)(C)n1nnnc1C1CC2(CCOCC2)C(=O)N1CCc1c[nH]c2ccccc12` (stereo unspecified) showed an RP-LC retention time of 770 s.

Source of the values: the METLIN SMRT retention time set (Domingo-Almenara et al. 2019).
